{
  "source": "patent US20220265657A1",
  "about": "“ADMINISTRATION METHOD AND DOSAGE REGIMEN FOR TREATMENT OF NEURODEGENERATIVE DISEASES USING TRAMETINIB AND MARKERS” (GENUV INC., priority 2019, published 2022)",
  "key": {"SH-SY5Y cells": {"system": "SH-SY5Y cells", "assay": "Immunocytochemistry of LC3, LAMP1 and lysotracker in SH-SY5Y cells", "format": "cell-based", "procedure": "Cell culture: SH-SY5Y neuroblastoma cells were cultured at 37° C., 5% CO2., in Dulbecco's Modified Eagle Medium/Ham's F-12 nutrient mixture (DMEM/F12) (Invitrogen, Carlsbad, Calif.) supplemented with 10% heat-inactivated fetal bovine serum containing 100 units/ml penicillin, 100 μg/ml streptomycin. Primary cortical neuron cultures were derived from embryo day 18 (E18) from ICR mice. The dissociated cells were plated on glass cover slips coated with poly-D-lysine in Neurobasal medium supplemented with 2% B27 (Invitrogen), 100 units/ml penicillin, 100 μg/ml streptomycin, and 2 mM L-glutamine. Primary NSCs from normal mice were isolated from the subventricular zone (SVZ) of 8 week-old C57BL/6 mice brain. NSCs from adult Tg2576 mice brain were obtained from Seoul National University Hospital. […]\nImmunocytochemistry: SH-SY5Y cells or adult NSCs were placed on glass coverslips coated with poly-L-ornithine/laminin or poly-D-lysine, respectively. […] The percentage of coefficient was calculated using the pixels above threshold of fluorescence intensities. […] The fluorescence intensity was observed under a confocal microscopy using a LSM700 microscope (Carl Zeiss). The number of LysoTracker puncta was analyzed with Icy software."}, "[1]": {"system": "NSCs from adult Tg2576 mice", "assay": "Immunofluorescence staining of NSCs from adult Tg2576 mice", "format": "cell-based", "details": "100 nM, 48 hrs", "procedure": "Cell culture: SH-SY5Y neuroblastoma cells were cultured at 37° C., 5% CO2., in Dulbecco's Modified Eagle Medium/Ham's F-12 nutrient mixture (DMEM/F12) (Invitrogen, Carlsbad, Calif.) supplemented with 10% heat-inactivated fetal bovine serum containing 100 units/ml penicillin, 100 μg/ml streptomycin. Primary cortical neuron cultures were derived from embryo day 18 (E18) from ICR mice. The dissociated cells were plated on glass cover slips coated with poly-D-lysine in Neurobasal medium supplemented with 2% B27 (Invitrogen), 100 units/ml penicillin, 100 μg/ml streptomycin, and 2 mM L-glutamine. Primary NSCs from normal mice were isolated from the subventricular zone (SVZ) of 8 week-old C57BL/6 mice brain. NSCs from adult Tg2576 mice brain were obtained from Seoul National University Hospital. The neurospheres were cultured as previously described (M. Y. Kim, B. S. Moon, K. Y. Choi, Isolation and maintenance of cortical neural progenitor cells in vitro. Methods Mol Biol 1018, 3-10 (2013)). For neurosphere culture from normal mice, the cells were dissociated from brain tissue and grown in N2 medium in 25 cm^2 flasks (SPL, Gyeonggi-do, Korea) in suspension. bFGF (20 ng/ml, Peprotech, Princeton, N.J.) and human EGF (20 ng/ml, Peprotech) were added to the media to allow the cells to form neurospheres. For analyses, NSCs were cultured as a monolayer. For differentiation of NSCs, the neurospheres were dissociated with TrypLE (Invitrogen), plated on 15 μg/ml poly-L-ornithine-(Sigma-Aldrich, St. Louis, Mo.) and 10 μg/ml fibronectin (Gibco)-coated plates, and cultured in bFGF- and EGF-depleted N2 medium for 2 days. For neurosphere culture from Tg2576 mice, the cells were grown in DMEM/F12 supplemented with B27 supplements in 75 cm^2 flasks (SPL) in suspension. bFGF (10 ng/ml) and human EGF (10 ng/ml) were added to the media to allow the cells to form neurospheres. For inducing differentiation and AP expression, the neurospheres were dissociated with pipetting, plated on 15 μg/ml poly-L-ornithine- and 10 μg/ml fibronectin (Gibco)-coated plates, and cultured in bFGF- and EGF-depleted medium for 2 days.\nImmunocytochemistry: SH-SY5Y cells or adult NSCs were placed on glass coverslips coated with poly-L-ornithine/laminin or poly-D-lysine, respectively. After washing three times with PBS for 5 min, cells were fixed in 10% formalin for 15 min at room temperature. The cells were then washed with PBS and permeabilized in 0.1% Triton X-100 for 2 min. Cells were placed in blocking solution containing 5% BSA in PBS for 1 h at room temperature and incubated with anti-active caspase 3 (cell signaling), anti-Aβ (thermo), anti-Tau (Cell signaling), anti-LC3 (Cell signaling) and anti-LAMP1 (Abcam) in blocking buffer for 2 h at room temperature. After washing, cells were incubated with goat anti-rabbit antibody conjugated with Alexa Fluor 488 (Thermo) and/or goat anti-rat antibody conjugated with Alexa Fluor 555 (Thermo) overnight. After washing, cells were incubated with 4′,6-diamidino-2-phenylindole (DAPI) for 5 min. Coverslips were mounted using mounting medium (Biomeda, Foster City, Calif.) and visualized by confocal microscopy using a LSM700 microscope (Carl Zeiss). The percentage of coefficient was calculated using the pixels above threshold of fluorescence intensities. […] The fluorescence intensity was observed under a confocal microscopy using a LSM700 microscope (Carl Zeiss). The number of LysoTracker puncta was analyzed with Icy software."}},
  "data": [
    {"smiles": "CC(=O)Nc1cccc(-n2c(=O)n(C3CC3)c(=O)c3c(Nc4ccc(I)cc4F)n(C)c(=O)c(C)c32)c1", "note": "[trametinib]", "values": [
      {"measurement": "co-staining of LC3-LAMP1", "setting": "SH-SY5Y cells; even in the presence of Aβ1-42 oligomers", "result": "increased co-staining of LC3-LAMP1"},
      {"measurement": "lysotracker-positive acidic puncta", "setting": "SH-SY5Y cells; in the presence of Aβ1-42 oligomers", "result": "increased lysotracker-positive acidic puncta"},
      {"measurement": "active caspase 3", "setting": "[1]", "result": "reduced active caspase 3"},
      {"measurement": "autophagosome-lysosome fusions in axon-like elongated elements and soma", "setting": "[1]", "result": "markedly increased"},
      {"measurement": "cells with bipolar morphology with elongated neurites", "setting": "[1]", "result": "marked increase"},
      {"measurement": "differentiation of NSCs into neuron-like cells", "setting": "[1]", "result": "strongly induced differentiation of NSCs into neuron-like cells"},
      {"measurement": "expression of autophagosomes and lysosomes (LC3 and LAMP1 staining)", "setting": "[1]", "result": "markedly increased"}
    ]}
  ]
}
